Tests used:
[1] = Examples 3-11: weight and height (velocity, percentile curve, course) of ADHD Patients A-H; format: in vivo, human
Procedure: In an embodiment, a therapeutically effective amount of a therapeutic compound disclosed herein increases the weight or height of an individual is determined by an increase in the individual's weight or height velocity as compared to an individual nor receiving a therapeutic compound for appetite reduction. In an embodiment, weight and/or height velocity can be calculated by taking measurements of height and/or weight of an individual over a period of time and measuring an increase or decrease in an individual's height and/or weight over the period of time. In an embodiment, weight velocity is calculated by taking three time points, time 0 upon initiation of medication to treat ADHD, time 1 addition of an appetite stimulant, time 2 the last data point after initiation of combination treatment. In an embodiment, a formula to calculate weight and height velocity for stimulant alone is (weightT1−weight T0)/days from Time 0 to time 1. In an embodiment, a formula to calculate weight velocity for combination treatment is (weightT2−weight T1)/days from time 1 to time 2. In an embodiment, to evaluate whether weight velocity increased after addition of an appetite stimulant, the weight velocity of time 0 to time 1 is compared to the weight velocity from time 1 to time 2. In an embodiment, height velocity is calculated by taking three time points, time 0 upon initiation of medication to treat ADHD, time 1 addition of an appetite stimulant, time 2 the last data point after initiation of combination treatment. The formula to calculate height velocity for stimulant alone is (weightT1−weight T0)/days from Time 0 to time 1. The formula to calculate height velocity for combination treatment is (weightT2−weight T1)/days from time 1 to time 2. In an embodiment, to evaluate whether height velocity increased after addition of an appetite stimulant, the height velocity of time 0 to time 1 is compared to the height velocity from time 1 to time 2.
Eight patients, identified as patients A-H, that came in suffering from ADHD were treated for ADHD. […] Each patient was then prescribed an appetite simulant to be taken along with the amphetamine or methylphenidate. The patients' weight, height and attentiveness were then followed during the course of treatment.
The age range of the patients was from 6-15 years of age, with a mean age at the start of treatment for ADHD of 8.4 years of age. The mean age at the start of the combination treatment wherein the patient was administered an amphetamine or methylphenidate and an appetite stimulant was 10.3 years of age. The mean treatment period for the eight patients was 1,108 days with a mean of 2.55 ADHD medication changes during the treatment period. Attentiveness in the eight patients was measured using CGI-S and CGI-I. Patients weight and height velocity were measured to identify a difference in weight and height gain prior to and after addition of an appetite stimulant to the treatment for ADHD. Weight velocity was calculated by taking three time points, time 0 upon initiation of medication to treat ADHD, time 1 addition of an appetite stimulant, time 2 the last data point after initiation of combination treatment. The formula to calculate weight velocity for stimulant alone is (weightT1−weight T0)/days from Time 0 to time 1. The formula to calculate weight velocity for combination treatment is (weightT2−weight T1)/days from time 1 to time 2.

[2] = system: patient suffering from ADHD; assay: Example 1: patient suffering from ADHD treated with and without an appetite stimulant (appetite, blood glucose, attentiveness by CGI-S and CGI-I); format: in vivo, human
Description: A patient suffering from ADHD is prescribed and administered an amphetamine to treat ADHD. The patient takes the amphetamine once a day in the morning or afternoon. […] As a result, the glucose level measured in the blood increases as shown in FIG. 1 and the patient's attentiveness recovers as measured by CGI-S and CGI-I. By taking the appetite stimulant during the time when the patient was awake, the patient increased their caloric intake during times when the patient needed to maintain their attentiveness in order to have reasonable cognition and/or social behaviour.

[3] = cited from earlier work
[4] = cited from earlier work; remark: listed apart in the source
[5] = Patient A, Periactin 4 mg b.i.d. added to Concerta from day 661, FIG. 4
[6] = Patient G, Focalin XR 15 mg and Periactin 4 mg b.i.d. from day 546, FIG. 16

SMILES: CN1CCC(=C2c3ccccc3C=Cc3ccccc32)CC1.Cl [Periactin, 4-(5H-dibenzo[a,d]cyclohepten-5-ylidene)-1-methylpiperidine hydrochloride]
- height course [1, 5]: increase in height began to accelerate
- weight course [1, 5]: began to gain weight
- weight course ([1]; Patient B, Focalin XR 15 mg and Periactin 4 mg b.i.d. from day 865, FIG. 6): began to gain weight
- weight course ([1]; Patient B, Focalin XR 30 mg with Periactin, FIG. 6): continued to increase
- weight course ([1]; Patient C, Concerta 36 mg and Periactin 4 mg b.i.d. from day 350, FIG. 8): began to gain weight
- weight course ([1]; Patient D, Concerta 18 mg and Periactin 2 mg in the morning from day 23, FIG. 10): began to gain weight at an accelerated pace
- weight course ([1]; Patient D, Concerta increased to 27 mg with Periactin): only a slight decrease in the ability of Patient D to continue to gain weight
- height course ([1]; Patient D, combination of Concerta and Periactin, lagged initiation, FIG. 10): increased the growth rate
- weight course ([1]; Patient E, Focalin XR 20 mg and Periactin 4 mg in the morning, FIG. 12): began to gain weight at an accelerated pace
- pace of weight gain ([1]; Patient E, Periactin administered b.i.d. from day 836 with Focalin XR): increased
- weight course ([1]; Patient F, Daytrana patch 30 mg and Periactin 2 mg b.i.d. from day 1547, FIG. 14): began to gain weight at an accelerated pace
- pace of weight gain ([1]; Patient F, Periactin increased to 4 mg b.i.d. on day 1950 with Daytrana patch): increased
- height course [1, 6]: began to gain height at an accelerated pace
- weight course [1, 6]: continued to gain weight at a good pace
- weight course ([1]; Patient H, Vvyanase 40 mg and Periactin 2 mg b.i.d. from day 109, FIG. 18): began to gain weight
- appetite when the dose of the ADHD drug was increased ([1]; individual patient of the example (B, D, E, F) on Periactin): without a concomitant loss of appetite
- attentiveness as measured by CGI-S and CGI-I ([2]; amphetamine and Cyproheptadine once a day): recovers
- appetite ([2]; amphetamine and Cyproheptadine once a day in the morning or afternoon): resumes
- glucose level measured in the blood ([2]; amphetamine and Cyproheptadine once a day, FIG. 1): increases
- effect in children suffering from ADHD (anecdotal evidence) ([3]; ADHD drug (amphetamine or methylphenidate) plus 4-8 mg cyproheptadine at night (Daviss 2004)): weight gain and excessive sleep
- effect on weight in studies ([3]; non-human animals or humans (Orthen-Gambill 1988)): weight gain
- side effects ([3]; oral monotherapy for allergy): weight gain and drowsiness
- time to reach peak plasma levels ([4]; after administration): 1 to 3 h
- half-life ([4]; in vivo): 8 h
